The source of these data is US9056098B2, “Hemoglobin-based oxygen carrier-containing pharmaceutical composition for cancer targeting treatment and prevention of cancer recurrence” (Vision Global Holdings Ltd., priority 2012, dated 2015).

Holding throughout (assay type): cell-based
Assay [1] deals with MCF7 cells isolated from mammospheres (cancer stem cells). Briefly: MTT assay on cancer stem cells from MCF7 mammospheres. To be noted: Hb 0.2 g/dL, Bort 0.5 μM, 5FU 5 μM. How it is done: (§1) Cell viability is measured using a 3-(4,5-dimethylthiazol-2-yl)-2,5-diphenyltetrazolium bromide (MTT) proliferation assay. Briefly, HepG2 or Huh7 cells are seeded in a 96-well flat-bottomed microplate (6000 cells/well) and cultured in 100 μL growth medium at 37° C. and 5% CO2 for 24 h. Cell culture medium in each well is then replaced by 100 μL cell growth medium, containing either no drug, Hb alone or Hb with another chemotherapeutics at their IC50 concentrations. Incubation of Hb for 24 h, 20 μL MTT labeling reagent (5 mg/mL in PBS solution) is added to each well for further 4 h at 37° C. The growth medium is removed gently, and 200 μL DMSO is then added to each well as solubilizing agent to dissolve the formazan crystals completely. The absorbance at the wavelength of 570 nm is measured by Multiskan EX (Thermo Electron Corporation), and each data point represents the means±SD from triplicate wells.
To test sensitivity of the cancer stem cells to chemotherapeutic agent alone or to the combined therapy of hemoglobin-based oxygen carrier and the chemotherapeutic agent, different sets of chemotherapeutic agent and/or the hemoglobin-based oxygen carrier of the present invention are administered to MCF7 cells isolated from mammospheres which are obtained at later passages, e.g. passages 7 and 8. Before testing the sensitivity of the cancer stem cells, the drug resistance of CD44+/CD24− to chemotherapeutic agent is shown in FIG. 32. Unsorted MCF7 cells and CD44+/CD24− sorted cells are incubated with DMSO (as control) and 90 nM of Taxol for 16 hours and 4 days. Phase contrast images (FIG. 32) for each set of sample are taken at each time interval (16 hours and 4 days) and the sorted cells after Taxol treatment for 4 days are further tested by MTT assay (as described in Example 3) to confirm the drug resistance of these cells to chemotherapeutic agent.
The high resistance of the CSCs to chemotherapeutic agent is further confirmed by the results of MTT assays on single cells from two passages (P7 and P8) after the mammospheres are treated with different combination of chemical(s) for at least 24 hours before trypsinization of mammospheres. The mammospheres are grown under the hypoxic conditions (5% CO2, 1.1% 02) to mimic the physiological environment of a tumor. Different combination of chemical(s) used in the MTT assays include the Hb alone (0.2 g/dL), Bortezomib (“Bort”, 0.5 μM) alone, 5-fluorouracil (“5FU”, 5 μM) alone, or any combination of the above. In case of the combinational drug (i.e. Hb+at least one chemotherapeutic agent), the trypsinized cells are incubated with 0.2 g/dL of Hb for 24 hours followed by the addition of the intended chemotherapeutic agent(s) and incubated for another 24 hours. In the normalized value, “1” represents 100% of survival rate; 0.75 represents 75% of survival rate, etc.
Background: Tetrazolium assays rely on reduction of a dye to a coloured formazan, in cell work by metabolically active cells.

In assay [2] the test system is HepG2 cells. Put plainly: MTT cytotoxicity assay in HepG2 cells. As to the method: (§2) HepG2 and Huh7 cell lines are used. These cells are cultured in DMEM (Invitrogen) with 10% Fetal bovine serum (FBS), 100 U/ml penicillin and 100 μg/ml streptomycin at 37° C. For normoxic condition, cells are incubated with ambient O2 concentration and 5% CO2; for hypoxic condition, cells are incubated with 0.1-0.5% O2 (Quorum FC-7 automatic CO2/O2/N2 gas mixer) and 5% CO2.
as §1

The subject of assay [3] is Huh7 cells. Put plainly: MTT cytotoxicity assay in Huh7 cells. How it is done:
as §2, §1

Assay [4] deals with CD44+/CD24− sorted MCF7 cells. Put plainly: Taxol resistance of CD44+/CD24− sorted MCF7 cells (morphology, MTT). To be noted: 90 nM. As to the method:
as §1
In order to test the effect of hemoglobin-based oxygen carrier on the cancer stem cells in a tumor, the MCF7 cells are incubated under hypoxic condition (5% CO2 and 1.1% O2) for 9-20 days before passing to the cell sorter where two filters are used: PE-A for CD24 marker while APC-A for CD44 marker. Quadrant 1 where cells are positive to CD44 and negative to CD24 (FIG. 31) are sorted for further analysis. […]

The mark [5] stands for this setting: Mammosphere (P7) under Hypoxic condition.
Setting [6] is: Mammosphere (P8) under Hypoxic condition.
[7] abbreviates: Homo sapiens, HepG2, HepG2 hypoxic.
Setting [8] is: Homo sapiens, HepG2, HepG2 normoxic.
The mark [9] stands for this setting: Homo sapiens, Huh-7, Huh7 hypoxic.
The mark [10] stands for this setting: Homo sapiens, Huh-7, Huh7 normoxic.

Several values for one entry are separate records, joined by “and”; a condition that tells them apart may be missing. Equal entries are not always repeated.

Take `CC(C)C[C@H](NC(=O)[C@H](Cc1ccccc1)NC(=O)c1cnccn1)B(O)O` [Bortezomib]: the “Absorbance (replicates)” value in assay [1] (setting [5]) is 0.178 and 0.172 and 0.177 and 0.163 and 0.174; in assay [1] (setting [6]), 0.169 and 0.166 and 0.159 and 0.155. Moreover, the “Normalized absorbance (replicates), 1 represents 100% of survival rate” value in assay [1] (setting [5]) was 0.8624 and 0.9206 and 0.9418 and 0.9101 and 0.9365; in assay [1] (setting [6]), 0.8086 and 0.7943 and 0.7608 and 0.7416. In addition, the “Normalized absorbance Avg, 1 represents 100% of survival rate” value in assay [1] (setting [5]) was 0.9143; in assay [1] (setting [6]), 0.7763. For the same molecule, the IC50 – broadly, the concentration that gives 50% inhibition – was 0.7 µM in assay [2] (setting [7]), 0.5 µM in assay [2] (setting [8]), 60 µM in assay [3] (setting [9]) and 55 µM in assay [3] (setting [10]). The “resistance of Huh7 cells as compared to HepG2 cells” value in assay [3] (hypoxic condition) amounted to 86 fold; in assay [3] (normoxic condition), 110 fold.

Consider `COc1cccc2c1C(=O)c1c(O)c3c(c(O)c1C2=O)C[C@@](O)(C(=O)CO)C[C@@H]3O[C@H]1C[C@H](N)[C@H](O)[C@H](C)O1` [Doxorubicin], for which the IC50 was determined as 30 µM in assay [2] (setting [7]), 10 µM in assay [2] (setting [8]), 6 µM in assay [3] (setting [9]) and 5 µM in assay [3] (setting [10]).

In the case of `CC(=O)O[C@H]1C(=O)[C@@]2(C)[C@H]([C@H](OC(=O)c3ccccc3)[C@]3(O)C[C@H](OC(=O)[C@H](O)[C@@H](NC(=O)c4ccccc4)c4ccccc4)C(C)=C1C3(C)C)[C@]1(OC(C)=O)CO[C@@H]1C[C@@H]2O` [Taxol], in assay [4] (4 days), the “survival (MTT)” value is on record as “about 96%”. Besides, the mammosphere formation result in assay [4] (both unsorted and CD44+/CD24− sorted cells) is “seem to be inhibited”.

`O=c1[nH]cc(F)c(=O)[nH]1` [5FU, 5-fluorouracil]: the “Absorbance (replicates)” value is 0.171 and 0.197 and 0.139 and 0.143 and 0.169 in assay [1] (setting [5]); 0.155 and 0.165 and 0.129 and 0.157 in assay [1] (setting [6]). Moreover, the “Normalized absorbance (replicates), 1 represents 100% of survival rate” value in assay [1] (setting [5]) was 0.7566 and 0.8942 and 0.9048 and 1.042 and 0.7355; in assay [1] (setting [6]), 0.7416 and 0.7895 and 0.6172 and 0.7512. The “Normalized absorbance Avg, 1 represents 100% of survival rate” value in assay [1] (setting [5]) amounted to 0.8667; in assay [1] (setting [6]), 0.7249. The IC50 was found to be 4000 µM in assay [2] (setting [7]), 4000 µM in assay [2] (setting [8]), 4000 µM in assay [3] (setting [9]) and 3500 µM in assay [3] (setting [10]).

On to `N.N.[Cl][Pt][Cl]` [Cisplatin], for which the IC50 in assay [2] (HepG2 hypoxic) is 170 µM; in assay [2] (HepG2 normoxic), 130 µM; in assay [3] (Huh7 hypoxic) it was 100 µM; in assay [3] (Huh7 normoxic), 70 µM.
